Test: xn = mol fraction of the nth substance listed
Conditions: Liquid, Vibrating tube method

CN(C)C=O [dimethylformamide] + O=C=O
Conditions | mass density [kg/m3]
313.15 K, 15999 kPa, x2 = 0.2876 | 958.91
313.15 K, 16006 kPa, x2 = 0.4461 | 967.34
313.15 K, 16007 kPa, x2 = 0.4268 | 966.35
313.15 K, 17000 kPa, x2 = 0.4268 | 967.35
313.15 K, 17005 kPa, x2 = 0.2876 | 959.75
313.15 K, 17007 kPa, x2 = 0.4461 | 968.38
313.15 K, 17985 kPa, x2 = 0.4461 | 969.42
313.15 K, 17994 kPa, x2 = 0.4268 | 968.36
313.15 K, 18009 kPa, x2 = 0.2876 | 960.57
313.15 K, 19015 kPa, x2 = 0.4461 | 970.46
313.15 K, 19017 kPa, x2 = 0.4268 | 969.38
313.15 K, 19021 kPa, x2 = 0.2876 | 961.39
313.15 K, 19994 kPa, x2 = 0.4268 | 970.35
313.15 K, 20001 kPa, x2 = 0.2876 | 962.21
313.15 K, 20007 kPa, x2 = 0.4461 | 971.48
313.15 K, 20983 kPa, x2 = 0.4268 | 971.33
313.15 K, 20996 kPa, x2 = 0.4461 | 972.47
313.15 K, 21004 kPa, x2 = 0.2876 | 963
313.15 K, 22022 kPa, x2 = 0.2876 | 963.82
313.15 K, 22022 kPa, x2 = 0.4461 | 973.5
313.15 K, 22024 kPa, x2 = 0.4268 | 972.32
313.15 K, 22993 kPa, x2 = 0.4461 | 974.47
313.15 K, 23016 kPa, x2 = 0.2876 | 964.58
313.15 K, 23020 kPa, x2 = 0.4268 | 973.26
313.15 K, 23989 kPa, x2 = 0.2876 | 965.35
313.15 K, 23996 kPa, x2 = 0.4461 | 975.45
313.15 K, 24016 kPa, x2 = 0.4268 | 974.2
313.15 K, 24992 kPa, x2 = 0.4461 | 976.41
313.15 K, 24996 kPa, x2 = 0.4268 | 975.14
313.15 K, 25004 kPa, x2 = 0.2876 | 966.15
313.16 K, 5026 kPa, x2 = 0.4502 | 955.28
313.16 K, 5988 kPa, x2 = 0.4502 | 956.32
313.16 K, 6028 kPa, x2 = 0.4068 | 955.07
313.16 K, 7004 kPa, x2 = 0.4502 | 957.42
313.16 K, 7010 kPa, x2 = 0.4068 | 956.12
313.16 K, 7999 kPa, x2 = 0.4502 | 958.57
313.16 K, 8028 kPa, x2 = 0.4068 | 957.19
313.16 K, 9005 kPa, x2 = 0.4068 | 958.24
313.16 K, 9031 kPa, x2 = 0.4502 | 959.69
313.16 K, 10012 kPa, x2 = 0.4502 | 960.79
313.16 K, 10041 kPa, x2 = 0.4068 | 959.33
313.16 K, 10994 kPa, x2 = 0.4068 | 960.3
313.16 K, 11036 kPa, x2 = 0.4502 | 961.92
313.16 K, 11990 kPa, x2 = 0.4068 | 961.32
313.16 K, 12022 kPa, x2 = 0.4502 | 963.01
313.16 K, 12989 kPa, x2 = 0.4068 | 962.33
313.16 K, 13014 kPa, x2 = 0.4502 | 964.13
313.16 K, 14015 kPa, x2 = 0.4502 | 965.19
313.16 K, 14027 kPa, x2 = 0.4068 | 963.34
313.16 K, 14992 kPa, x2 = 0.4068 | 964.31
313.16 K, 15005 kPa, x2 = 0.4502 | 966.24
313.16 K, 15994 kPa, x2 = 0.4068 | 965.3
313.16 K, 16019 kPa, x2 = 0.4502 | 967.32
313.16 K, 16994 kPa, x2 = 0.4068 | 966.27
313.16 K, 17003 kPa, x2 = 0.4502 | 968.34
313.16 K, 17999 kPa, x2 = 0.4502 | 969.4
313.16 K, 18006 kPa, x2 = 0.4068 | 967.25
313.16 K, 18978 kPa, x2 = 0.4068 | 968.19
313.16 K, 19033 kPa, x2 = 0.4502 | 970.43
313.16 K, 19978 kPa, x2 = 0.4502 | 971.41
313.16 K, 20043 kPa, x2 = 0.4068 | 969.19
313.16 K, 21007 kPa, x2 = 0.4502 | 972.47
313.16 K, 21020 kPa, x2 = 0.4068 | 970.1
313.16 K, 22002 kPa, x2 = 0.4068 | 970.98
313.16 K, 22023 kPa, x2 = 0.4502 | 973.48
313.16 K, 23040 kPa, x2 = 0.4502 | 974.49
313.16 K, 23059 kPa, x2 = 0.4068 | 971.98
313.16 K, 24007 kPa, x2 = 0.4502 | 975.45
313.16 K, 24032 kPa, x2 = 0.4068 | 972.87
313.16 K, 24995 kPa, x2 = 0.4502 | 976.42
313.16 K, 25024 kPa, x2 = 0.4068 | 973.76
323.07 K, 9001 kPa, x2 = 0.6235 | 928.72
323.07 K, 10031 kPa, x2 = 0.6235 | 931.44
323.07 K, 11013 kPa, x2 = 0.6235 | 933.93
323.07 K, 12042 kPa, x2 = 0.6235 | 936.47
323.07 K, 13033 kPa, x2 = 0.6235 | 938.86
323.07 K, 13992 kPa, x2 = 0.6235 | 941.1
323.07 K, 14972 kPa, x2 = 0.6235 | 943.31
323.07 K, 15993 kPa, x2 = 0.6235 | 945.57
323.07 K, 16998 kPa, x2 = 0.6235 | 947.71
323.07 K, 18015 kPa, x2 = 0.6235 | 949.84
323.07 K, 18988 kPa, x2 = 0.6235 | 951.84
323.07 K, 20012 kPa, x2 = 0.6235 | 953.89

Source: the NIST ThermoML archive (doi:10.1021/je050050p)
